According to ChEMBL document CHEMBL1629678, “Apricitabine does not select additional drug resistance mutations in tissue culture in human immunodeficiency virus type 1 variants containing K65R, M184V, or M184V plus thymidine analogue mutations” (Antimicrob Agents Chemother, 2009):
pIC50: −log10 of the molar value.

How the values were obtained:
[1] = system: Human immunodeficiency virus 1; assay: Selectivity ratio of IC50 for 32 week drug adapted HIV1 HXB-2D harboring reverse transcriptase K65R mutant gene to IC50 for HIV1 HXB-2D harboring reverse transcriptase K65R mutant gene; assay type: functional
[2] = system: Human immunodeficiency virus 1; assay: Selectivity ratio of IC50 for 17 week drug adapted HIV1 HXB-2D harboring reverse transcriptase S68S/G mutant gene to IC50 for HIV1 HXB-2D harboring reverse transcriptase K65R mutant gene; assay type: functional
[3] = system: Human immunodeficiency virus 1; assay: Selectivity ratio of IC50 for 8 week drug adapted HIV1 HXB-2D harboring reverse transcriptase K65R mutant gene to IC50 for HIV1 HXB-2D harboring reverse transcriptase K65R mutant gene; assay type: functional
[4] = system: Human immunodeficiency virus 1; assay: Selectivity ratio of IC50 for 38 week drug adapted HIV1 HXB-2D harboring reverse transcriptase S68S/G mutant gene to IC50 for HIV1 HXB-2D harboring reverse transcriptase K65R mutant gene; assay type: functional
[5] = system: Human immunodeficiency virus 1; assay: Selectivity ratio of IC50 for 17 week drug adapted HIV1 HXB-2D harboring reverse transcriptase D237N mutant gene to IC50 for HIV1 HXB-2D harboring wild type reverse transcriptase; assay type: functional
[6] = system: Human immunodeficiency virus 1; assay: Selectivity ratio of IC50 for 8 week drug adapted HIV1 HXB-2D harboring reverse transcriptase D237N mutant gene to IC50 for HIV1 HXB-2D harboring wild type reverse transcriptase; assay type: functional
[7] = system: Human immunodeficiency virus 1; assay: Selectivity ratio of IC50 for 32 week drug adapted HIV1 HXB-2D harboring wild type reverse transcriptase to IC50 for HIV1 HXB-2D harboring wild type reverse transcriptase; assay type: functional
[8] = system: Human immunodeficiency virus 1; assay: Selectivity ratio of IC50 for 38 week drug adapted HIV1 HXB-2D harboring reverse transcriptase I50T/II, D237N/D mutant gene to IC50 for HIV1 HXB-2D harboring wild type reverse transcriptase; assay type: functional
[9] = system: Human immunodeficiency virus 1; assay: Selectivity ratio of IC50 for 48 week drug adapted HIV1 HXB-2D harboring reverse transcriptase M184V mutant gene to IC50 for HIV1 HXB-2D harboring wild type reverse transcriptase; assay type: functional
[10] = system: Human immunodeficiency virus 1; assay: Selectivity ratio of IC50 for 51 week drug adapted HIV1 HXB-2D harboring reverse transcriptase M184V, K65R mutant gene to IC50 for HIV1 HXB-2D harboring wild type reverse transcriptase; assay type: functional
[11] = system: Human immunodeficiency virus 1; assay: Selectivity ratio of IC50 for 51 week drug adapted HIV1 HXB-2D harboring reverse transcriptase M184V/M, K65R mutant gene to IC50 for HIV1 HXB-2D harboring wild type reverse transcriptase; assay type: functional
[12] = system: Human immunodeficiency virus 1; assay: Selectivity ratio of IC50 for 8 week drug adapted HIV1 HXB-2D harboring reverse transcriptase M184V, M41L, T215Y mutant gene to IC50 for HIV1 HXB-2D harboring reverse transcriptase M184V, M41L, T215Y mutant gene; assay type: functional
[13] = system: Human immunodeficiency virus 1; assay: Selectivity ratio of IC50 for 20 week drug adapted HIV1 HXB-2D harboring reverse transcriptase M184V, M41L, T215Y mutant gene to IC50 for HIV1 HXB-2D harboring reverse transcriptase M184V, M41L, T215Y mutant gene; assay type: functional
[14] = system: Human immunodeficiency virus 1; assay: Selectivity ratio of IC50 for 28 week drug adapted HIV1 HXB-2D harboring reverse transcriptase M184V, M41L, T215Y mutant gene to IC50 for HIV1 HXB-2D harboring reverse transcriptase M184V, M41L, T215Y mutant gene; assay type: functional
[15] = system: Human immunodeficiency virus 1; assay: Selectivity ratio of IC50 for HIV1 HXB-2D harboring reverse transcriptase M184V, M41L and T215Y mutant gene to IC50 for wild type HIV1 HXB-2D infected in human cord blood mononuclear cells; assay type: functional
[16] = system: Human immunodeficiency virus 1; assay: Selectivity ratio of IC50 for HIV1 HXB-2D harboring reverse transcriptase K65R mutant gene to IC50 for wild type HIV1 HXB-2D infected in human cord blood mononuclear cells; assay type: functional
[17] = system: Human immunodeficiency virus 1; assay: Selectivity ratio of IC50 for HIV1 HXB-2D harboring reverse transcriptase M184V mutant gene to IC50 for wild type HIV1 HXB-2D infected in human cord blood mononuclear cells; assay type: functional
[18] = system: Human immunodeficiency virus 1; assay: Antiviral activity against HIV1 HXB-2D harboring reverse transcriptase M184V, M41L and T215Y mutant gene infected in human cord blood mononuclear cells; assay type: functional, organism-based; conditions: Human immunodeficiency virus 1, HXB-2D
[19] = system: Human immunodeficiency virus 1; assay: Antiviral activity against HIV1 HXB-2D harboring reverse transcriptase K65R mutant gene infected in human cord blood mononuclear cells; assay type: functional, organism-based; conditions: Human immunodeficiency virus 1, HXB-2D
[20] = system: Human immunodeficiency virus 1; assay: Antiviral activity against HIV1 HXB-2D harboring reverse transcriptase M184V mutant gene infected in human cord blood mononuclear cells; assay type: functional, organism-based; conditions: Human immunodeficiency virus 1, HXB-2D
[21] = system: Human immunodeficiency virus 1; assay: Antiviral activity against wild type HIV1 HXB-2D infected in human cord blood mononuclear cells; assay type: functional, organism-based; conditions: Human immunodeficiency virus 1, HXB-2D
[22] = system: Human immunodeficiency virus 1; assay: Selectivity ratio of IC50 for 38 week drug adapted HIV1 HXB-2D harboring reverse transcriptase V101I/V, D177N, E194G mutant gene to IC50 for HIV1 HXB-2D harboring reverse transcriptase M184V mutant gene; assay type: functional
[23] = system: Human immunodeficiency virus 1; assay: Selectivity ratio of IC50 for 32 week drug adapted HIV1 HXB-2D harboring reverse transcriptase V101I/V, D177N, E194G mutant gene to IC50 for HIV1 HXB-2D harboring reverse transcriptase M184V mutant gene; assay type: functional
[24] = system: Human immunodeficiency virus 1; assay: Selectivity ratio of IC50 for 8 week drug adapted HIV1 HXB-2D harboring reverse transcriptase F87L/F mutant gene to IC50 for HIV1 HXB-2D harboring reverse transcriptase M184V mutant gene; assay type: functional
[25] = system: Human immunodeficiency virus 1; assay: Selectivity ratio of IC50 for 17 week drug adapted HIV1 HXB-2D harboring reverse transcriptase D177N/D, E194E/G mutant gene to IC50 for HIV1 HXB-2D harboring reverse transcriptase M184V mutant gene; assay type: functional

Nc1ccn([C@H]2CO[C@@H](CO)S2)c(=O)n1 [APRICITABINE]
fold change (FC) [1]: 2.5 | fold change (FC) [2]: 0.5 | fold change (FC) [3]: 0.5 | fold change (FC) [4]: 3 | fold change (FC) [5]: 1.3 | fold change (FC) [6]: 4 | fold change (FC) [7]: 4 | fold change (FC) [8]: 8 | fold change (FC) [9]: 8 | fold change (FC) [10]: 8 | fold change (FC) [11]: 13.3 | fold change (FC) [12]: 0.7 | fold change (FC) [13]: 3.7 | fold change (FC) [14]: 3.7 | fold change (FC) [15]: 1.77 | fold change (FC) [16]: 2.69 | fold change (FC) [17]: 2.37 | pIC50 [18]: 4.87 | pIC50 [19]: 4.69 | pIC50 [20]: 4.75 | pIC50 [21]: 5.12 | fold change (FC) [22]: 3.4 | fold change (FC) [23]: 3.4 | fold change (FC) [24]: 1.7 | fold change (FC) [25]: 1.1
